Literature values as cited in article PMC6482886 (Chemical Science, 2019).

How the values were obtained:
[1] = molecular target: T1, hDMX (Homo sapiens, UniProt O15151)
T1 sequence (O15151 1-392): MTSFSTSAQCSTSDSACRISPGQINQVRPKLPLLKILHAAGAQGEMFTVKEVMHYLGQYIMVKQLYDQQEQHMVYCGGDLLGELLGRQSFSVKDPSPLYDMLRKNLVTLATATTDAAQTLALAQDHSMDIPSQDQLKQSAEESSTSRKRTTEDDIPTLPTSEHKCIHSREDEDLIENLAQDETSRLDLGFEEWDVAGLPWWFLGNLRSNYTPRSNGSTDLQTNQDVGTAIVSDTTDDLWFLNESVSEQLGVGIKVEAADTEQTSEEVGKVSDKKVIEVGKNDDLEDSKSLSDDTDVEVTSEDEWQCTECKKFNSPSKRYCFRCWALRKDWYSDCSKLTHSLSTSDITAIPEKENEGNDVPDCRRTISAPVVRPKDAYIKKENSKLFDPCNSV

## CCOc1cc(/C=C2/C(=O)N(c3ccccc3)N=C2C)cc(Cl)c1OCC(=O)OC [SJ-172550]
[1]
  binding affinity to hDMX compared with p53: less affinity to hDMX than p53

## N#Cc1c2ccc(N)cc2nc2cc(N)ccc12 [CTX1]
other
  cellular IC50 / cellular activity reported in the literature: tens to hundreds of micromolar range
